According to ChEMBL document CHEMBL5365440, “Design, synthesis, and structure-activity relationship of a bicyclic HBV capsid assembly modulator chemotype leading to the identification of clinical candidate AB-506” (Bioorg Med Chem Lett, 2023):
≈ marks a conversion by molar mass, not a printed value.

Columns and labels:
[1] = Microsomal stability in human liver microsomes assessed as intrinsic clearance; type: ADME, Microsome; details: read-out: CLH
[2] = tested on: Hepatitis B virus; assay: Antiviral activity against Hepatitis B virus infected in human HepDE19 cells assessed as reduction in viral replication incubated for 3 to 7 days by PCR analysis; type: functional, organism-based
[3] = Aqueous solubility of the compound in PBS buffer at pH 7.4; type: physicochemical
[4] = Microsomal stability in mouse liver microsomes assessed as intrinsic clearance; type: ADME, Microsome; details: read-out: CLH
[5] = in vivo; details: rat, po, 10 mg/kg
Description: AUC (0-infinity) in rat at 10 mg/kg,po

[6] = Cmax in dog at 10 mg/kg,po; type: ADME, organism-based, Canis lupus familiaris; parameters: dose 10 mg/kg, route po; details: in vivo
[7] = AUC (0-infinity) in CD-1 mouse at 10 mg/kg,po; type: ADME, organism-based; parameters: dose 10 mg/kg, route po; details: in vivo
[8] = biological target: Cytochrome P450 2D6 (Homo sapiens, UniProt P10635); assay: Inhibition of CYP2D6 (unknown origin); type: ADME
Cytochrome P450 2D6, sequence (P10635 whole entry): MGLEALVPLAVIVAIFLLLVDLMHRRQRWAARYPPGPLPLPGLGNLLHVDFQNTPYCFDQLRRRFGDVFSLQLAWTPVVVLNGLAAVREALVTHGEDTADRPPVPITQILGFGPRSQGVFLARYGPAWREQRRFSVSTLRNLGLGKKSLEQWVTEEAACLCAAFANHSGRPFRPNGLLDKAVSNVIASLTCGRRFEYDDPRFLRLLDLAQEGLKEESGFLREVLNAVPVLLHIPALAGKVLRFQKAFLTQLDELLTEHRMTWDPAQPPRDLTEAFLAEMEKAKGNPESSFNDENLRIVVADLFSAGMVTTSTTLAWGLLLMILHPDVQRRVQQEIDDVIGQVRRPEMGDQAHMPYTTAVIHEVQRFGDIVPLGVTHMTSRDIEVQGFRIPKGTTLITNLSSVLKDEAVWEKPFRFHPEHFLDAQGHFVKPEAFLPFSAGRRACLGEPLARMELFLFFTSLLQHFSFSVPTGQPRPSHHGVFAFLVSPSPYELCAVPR

[9] = tested on: Hepatitis B virus; assay: Antiviral activity against Hepatitis B virus Genotype D infected in NOD.CB17-PrkdcSCID/J mouse model assessed as reduction in serum HBV DNA level at po dosed for 7 consecutive days; type: functional, organism-based
[10] = tested on: Hepatitis B virus; assay: Antiviral activity against Hepatitis B virus Genotype D infected in NOD.CB17-PrkdcSCID/J mouse model assessed as log reduction in serum HBV DNA level at 10 mg/kg,po dosed for 7 consecutive days by qPCR analysis; type: functional
[11] = biological target: T1, Cytochrome P450 1A2 (Homo sapiens, UniProt P05177); assay: Inhibition of CYP1A2 (unknown origin); type: ADME
T1 sequence (P05177 whole entry): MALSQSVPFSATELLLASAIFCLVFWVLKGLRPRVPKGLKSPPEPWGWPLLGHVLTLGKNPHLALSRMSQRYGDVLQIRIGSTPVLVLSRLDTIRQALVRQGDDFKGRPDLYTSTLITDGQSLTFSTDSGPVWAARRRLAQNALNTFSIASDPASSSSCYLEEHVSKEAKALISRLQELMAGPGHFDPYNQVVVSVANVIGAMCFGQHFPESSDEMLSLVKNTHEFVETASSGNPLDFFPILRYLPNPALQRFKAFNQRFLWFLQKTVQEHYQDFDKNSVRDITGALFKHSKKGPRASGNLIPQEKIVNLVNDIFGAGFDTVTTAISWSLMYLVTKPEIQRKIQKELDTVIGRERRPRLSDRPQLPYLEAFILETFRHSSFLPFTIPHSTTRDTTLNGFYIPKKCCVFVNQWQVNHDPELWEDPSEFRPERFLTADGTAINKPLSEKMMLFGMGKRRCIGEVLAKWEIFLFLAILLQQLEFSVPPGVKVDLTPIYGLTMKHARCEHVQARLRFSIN

[12] = Clearance in rat at 2 mg/kg,iv; type: ADME, organism-based; details: in vivo
[13] = tested on: Hepatitis B virus; assay: Antiviral activity against Hepatitis B virus Genotype D infected in NOD.CB17-PrkdcSCID/J mouse model assessed as log reduction in serum HBV DNA level at 100 mg/kg,po dosed for 7 consecutive days by qPCR analysis; type: functional
[14] = in vivo; details: dog, po, 10 mg/kg
Description: AUC (0-infinity) in dog at 10 mg/kg,po

[15] = Cmax in rat at 10 mg/kg,po; type: ADME, organism-based; parameters: dose 10 mg/kg, route po; details: in vivo
[16] = Half life in CD-1 mouse at 2 mg/kg,iv; type: ADME, organism-based; details: in vivo
[17] = biological target: Cytochrome P450 2C19 (Homo sapiens, UniProt P33261); assay: Inhibition of CYP2C19 (unknown origin); type: ADME
Cytochrome P450 2C19, sequence (P33261 whole entry): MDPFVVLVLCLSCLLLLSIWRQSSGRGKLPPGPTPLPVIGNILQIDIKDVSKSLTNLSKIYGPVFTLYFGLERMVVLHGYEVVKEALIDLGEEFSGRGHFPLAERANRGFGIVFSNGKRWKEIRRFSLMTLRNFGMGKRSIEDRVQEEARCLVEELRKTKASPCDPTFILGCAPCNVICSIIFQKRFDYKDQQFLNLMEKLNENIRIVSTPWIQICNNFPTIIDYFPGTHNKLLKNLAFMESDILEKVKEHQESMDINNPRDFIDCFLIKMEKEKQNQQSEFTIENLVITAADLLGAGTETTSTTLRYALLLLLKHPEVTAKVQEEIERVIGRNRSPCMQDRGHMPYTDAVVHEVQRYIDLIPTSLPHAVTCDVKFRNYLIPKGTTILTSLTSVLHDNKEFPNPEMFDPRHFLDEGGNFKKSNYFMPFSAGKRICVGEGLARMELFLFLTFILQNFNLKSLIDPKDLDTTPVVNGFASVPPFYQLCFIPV

[18] = biological target: Cytochrome P450 2C9 (Homo sapiens, UniProt P11712); assay: Inhibition of CYP2C9 (unknown origin); type: ADME
Cytochrome P450 2C9, sequence (P11712 whole entry): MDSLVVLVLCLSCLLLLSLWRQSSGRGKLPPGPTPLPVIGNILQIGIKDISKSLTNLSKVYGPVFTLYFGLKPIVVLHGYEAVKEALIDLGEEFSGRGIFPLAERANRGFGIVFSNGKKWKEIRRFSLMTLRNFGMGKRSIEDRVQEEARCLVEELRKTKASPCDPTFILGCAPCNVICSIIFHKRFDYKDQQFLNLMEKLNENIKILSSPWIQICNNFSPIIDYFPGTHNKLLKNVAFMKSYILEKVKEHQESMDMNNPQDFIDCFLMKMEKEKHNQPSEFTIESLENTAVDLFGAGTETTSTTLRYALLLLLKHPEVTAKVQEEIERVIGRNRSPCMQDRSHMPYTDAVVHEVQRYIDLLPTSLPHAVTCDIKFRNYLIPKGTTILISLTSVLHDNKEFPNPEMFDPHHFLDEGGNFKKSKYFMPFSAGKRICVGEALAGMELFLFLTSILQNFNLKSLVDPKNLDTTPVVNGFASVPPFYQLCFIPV

[19] = biological target: Cytochrome P450 3A4 (Homo sapiens, UniProt P08684); assay: Inhibition of CYP3A4 (unknown origin); type: ADME
Cytochrome P450 3A4, sequence (P08684 whole entry): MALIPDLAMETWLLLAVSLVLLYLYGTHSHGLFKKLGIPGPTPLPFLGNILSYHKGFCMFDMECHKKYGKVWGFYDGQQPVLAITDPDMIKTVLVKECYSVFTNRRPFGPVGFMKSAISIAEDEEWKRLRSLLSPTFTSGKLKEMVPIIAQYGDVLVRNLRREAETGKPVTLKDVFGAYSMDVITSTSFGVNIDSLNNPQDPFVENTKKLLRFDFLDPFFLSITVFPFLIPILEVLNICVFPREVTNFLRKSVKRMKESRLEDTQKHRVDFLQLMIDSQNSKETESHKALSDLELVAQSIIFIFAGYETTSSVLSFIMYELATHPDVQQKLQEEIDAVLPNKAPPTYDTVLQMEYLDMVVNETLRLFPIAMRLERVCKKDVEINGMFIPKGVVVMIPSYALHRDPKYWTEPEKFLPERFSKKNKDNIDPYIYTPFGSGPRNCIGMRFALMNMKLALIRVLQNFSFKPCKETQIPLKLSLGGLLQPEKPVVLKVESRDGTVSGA

[20] = Half life in dog at 2 mg/kg,iv; type: ADME, organism-based, Canis lupus familiaris; details: in vivo
[21] = Clearance in dog at 2 mg/kg,iv; type: ADME, organism-based, Canis lupus familiaris; details: in vivo
[22] = tested on: Hepatitis B virus; assay: Antiviral activity against Hepatitis B virus Genotype D infected in NOD.CB17-PrkdcSCID/J mouse model assessed as log reduction in serum HBV DNA level at 30 mg/kg,po dosed for 7 consecutive days by qPCR analysis; type: functional
[23] = Clearance in CD-1 mouse at 2 mg/kg,iv; type: ADME, organism-based; details: in vivo
[24] = Half life in rat at 2 mg/kg,iv; type: ADME, organism-based; details: in vivo
[25] = tested on: Hepatitis B virus; assay: Antiviral activity against Hepatitis B virus infected in mouse AML12 cells assessed as reduction in viral replication incubated for 2 days by SYBR green based PCR analysis; type: functional, organism-based; details: AML12, 48 h
[26] = Cytotoxicity against human HepDE19 cells incubated for 48 hrs by cell titer-glo luminescent based cell viability assay; type: toxicity
[27] = Cmax in CD-1 mouse at 10 mg/kg,po; type: ADME, organism-based; parameters: dose 10 mg/kg, route po; details: in vivo

| microsomal CLint [1] | EC50 [2] | solubility [3] | microsomal CLint [4] | Compound | further results |
| --- | --- | --- | --- | --- | --- |
| 8.2 µL/min/mg | 190 nM | 2.8 µM (≈ 1.19 µg/mL) | 8.1 µL/min/mg | COCCOC(=O)N[C@H]1CCc2c(C(=O)Nc3ccc(F)c(Cl)c3)ccc(F)c21 | – |
| 5 µL/min/mg | 1320 nM | – | 41 µL/min/mg | COC(=O)N[C@H]1COc2c(C(=O)Nc3ccc(F)c(F)c3)cccc21 | – |
| 0.6 µL/min/mg | 590 nM | – | 9.2 µL/min/mg | COC(=O)N[C@H]1CCc2c(C(=O)Nc3ccc(F)c(F)c3)cccc21 | – |
| 6.2 µL/min/mg | 77 nM | 14.8 µM (≈ 6.84 µg/mL) | 21 µL/min/mg | Cn1cnc(COC(=O)N[C@H]2CCc3c(C(=O)Nc4ccc(F)c(Cl)c4)ccc(F)c32)n1 | AUC(0-inf) [5]: 39600 ng·h/mL; Cmax [6]: 6820 ng/mL; AUC(0-inf) [7]: 9870 ng·h/mL; IC50 [8]: > 20000 nM; Activity [9]: Dose-Dependent Effect; Activity [10]: 1 log10CFU; IC50 [11]: > 20000 nM; clearance [12]: 4.6 mL/min/kg; Activity [13]: 2.9 log10CFU; AUC(0-inf) [14]: 134000 ng·h/mL; Cmax [15]: 2850 ng/mL; half-life [16]: 2.5 h; IC50 [17]: > 20000 nM; IC50 [18]: > 20000 nM; IC50 [19]: > 20000 nM; half-life [20]: 11.4 h; clearance [21]: 1.25 mL/min/kg; Activity [22]: 2.4 log10CFU; clearance [23]: 18 mL/min/kg; half-life [24]: 3.2 h |
| – | 2250 nM | – | – | COC(=O)N[C@H]1CCOc2c(C(=O)Nc3ccc(F)c(F)c3)cccc21 | EC50 [25]: 710 nM; CC50 at 48 h [26]: > 25000 nM |
| 10 µL/min/mg | 580 nM | 3 µM (≈ 1.32 µg/mL) | 55 µL/min/mg | COCCCOC(=O)N[C@H]1CCc2c(C(=O)Nc3ccc(F)c(Cl)c3)ccc(F)c21 | – |
| – | 850 nM | – | – | COC(=O)N[C@H]1CCOc2c(C(=O)Nc3ccc(F)c(Cl)c3)cccc21 | EC50 [25]: 280 nM; CC50 at 48 h [26]: > 25000 nM |
| 6.9 µL/min/mg | 120 nM | < 1.6 µM | 18 µL/min/mg | O=C(N[C@H]1CCc2c(C(=O)Nc3ccc(F)c(Cl)c3)ccc(F)c21)OCc1cnccn1 | – |
| – | – | – | – | O=C(Nc1ccc(F)c(Cl)c1)c1cccc2c1OCCO2 | EC50 [25]: 200 nM |
| 0.2 µL/min/mg | 79 nM | 6.1 µM (≈ 2.73 µg/mL) | 9 µL/min/mg | O=C(N[C@H]1CCc2c(C(=O)Nc3ccc(F)c(Cl)c3)ccc(F)c21)OCc1nc[nH]n1 | – |
| – | 200 nM | – | – | COC(=O)N[C@H]1CCOc2c(C(=O)Nc3ccc(F)c(Cl)c3)ccc(F)c21 | CC50 at 48 h [26]: > 25000 nM |
| 104 µL/min/mg | 280 nM | < 1.6 µM | 96 µL/min/mg | Cn1ccnc1COC(=O)N[C@H]1CCc2c(C(=O)Nc3ccc(F)c(Cl)c3)ccc(F)c21 | – |
| – | 570 nM | – | – | COC(=O)N[C@H]1CCOc2c(C(=O)Nc3ccc(F)c(F)c3)ccc(F)c21 | CC50 at 48 h [26]: > 25000 nM |
| – | 3710 nM | – | – | COC(=O)N[C@H]1CCOc2c1ccc(F)c2C(=O)Nc1ccc(F)c(F)c1 | CC50 at 48 h [26]: > 25000 nM |
| 38 µL/min/mg | 100 nM | 9.1 µM (≈ 4.19 µg/mL) | 25 µL/min/mg | Cn1nccc1COC(=O)N[C@H]1CCc2c(C(=O)Nc3ccc(F)c(Cl)c3)ccc(F)c21 | – |
| 133 µL/min/mg | 190 nM | 43.4 µM (≈ 19.6 µg/mL) | 17 µL/min/mg | CC(=O)NCCOC(=O)N[C@H]1CCc2c(C(=O)Nc3ccc(F)c(Cl)c3)ccc(F)c21 | – |

| microsomal CLint [1] | EC50 [2] | solubility [3] | microsomal CLint [4] | Compound | further results |
| --- | --- | --- | --- | --- | --- |
| 7.5 µL/min/mg | 71 nM | < 1.6 µM | 23 µL/min/mg | O=C(N[C@H]1CCc2c(C(=O)Nc3ccc(F)c(Cl)c3)ccc(F)c21)OCc1ncco1 | – |
| – | 2230 nM | – | – | COC(=O)N[C@H]1CCOc2c1ccc(F)c2C(=O)Nc1ccc(F)c(Cl)c1 | CC50 at 48 h [26]: > 25000 nM |
| – | 1170 nM | – | – | COC(=O)N[C@H]1CCOc2c(C(=O)Nc3cc(F)c(F)c(F)c3)cccc21 | CC50 at 48 h [26]: > 25000 nM |
| 20 µL/min/mg | 300 nM | 16.9 µM (≈ 7.79 µg/mL) | 20 µL/min/mg | O=C(N[C@H]1CCc2c(C(=O)Nc3ccc(F)c(Cl)c3)ccc(F)c21)OCCn1ccnc1 | – |
| 8 µL/min/mg | 74 nM | < 1.6 µM | 17 µL/min/mg | O=C(N[C@H]1CCc2c(C(=O)Nc3ccc(F)c(Cl)c3)ccc(F)c21)OCc1cc[nH]n1 | – |
| 7.9 µL/min/mg | 47 nM | 4.8 µM (≈ 2.21 µg/mL) | 23 µL/min/mg | Cn1ccc(COC(=O)N[C@H]2CCc3c(C(=O)Nc4ccc(F)c(Cl)c4)ccc(F)c32)n1 | AUC(0-inf) [7]: 5160 ng·h/mL; Cmax [27]: 913 ng/mL; Activity [9]: Dose-Dependent Effect; Activity [10]: 0.5 log10CFU; Activity [13]: 2.5 log10CFU; half-life [16]: 3.5 h; Activity [22]: 1.4 log10CFU; clearance [23]: 19 mL/min/kg |
| – | 800 nM | – | – | COC(=O)N[C@H]1CCOc2c(C(=O)Nc3ccc(F)c(F)c3)c(F)cc(F)c21 | CC50 at 48 h [26]: > 25000 nM |
| 3.5 µL/min/mg | 120 nM | 4.5 µM (≈ 2.06 µg/mL) | 17 µL/min/mg | O=C(N[C@H]1CCc2c(C(=O)Nc3ccc(F)c(Cl)c3)ccc(F)c21)OCc1ncccn1 | – |
| 11 µL/min/mg | 95 nM | < 1.6 µM | 36 µL/min/mg | O=C(N[C@H]1CCc2c(C(=O)Nc3ccc(F)c(Cl)c3)ccc(F)c21)OCc1ccccn1 | AUC(0-inf) [7]: 7230 ng·h/mL; Cmax [27]: 695 ng/mL; Activity [9]: Dose-Dependent Effect; Activity [13]: 1.6 log10CFU; half-life [16]: 1.2 h; Activity [22]: 0.8 log10CFU; clearance [23]: 28 mL/min/kg |
| 1 µL/min/mg | 390 nM | 7.5 µM (≈ 3.44 µg/mL) | 45 µL/min/mg | O=C(N[C@H]1CCc2c(C(=O)Nc3ccc(F)c(Cl)c3)ccc(F)c21)OCc1ccncn1 | – |
| 1 µL/min/mg | 200 nM | 6.4 µM (≈ 2.63 µg/mL) | 3 µL/min/mg | O=C(N[C@H]1CCc2c(C(=O)Nc3ccc(F)c(Cl)c3)ccc(F)c21)OCCO | – |
| 4.8 µL/min/mg | 120 nM | < 1.6 µM | 33 µL/min/mg | O=C(N[C@H]1CCc2c(C(=O)Nc3ccc(F)c(Cl)c3)ccc(F)c21)OCc1ccon1 | – |
| – | > 25000 nM | – | – | COC(=O)N[C@H]1CCCOc2c(C(=O)Nc3ccc(F)c(F)c3)cccc21 | – |
| 3.5 µL/min/mg | 170 nM | < 1.6 µM | 9.2 µL/min/mg | COC(=O)N[C@H]1CCc2c(C(=O)Nc3ccc(F)c(Cl)c3)ccc(F)c21 | – |
| 0.3 µL/min/mg | 8600 nM | – | 21 µL/min/mg | COC(=O)N[C@H]1CCCc2c(C(=O)Nc3ccc(F)c(F)c3)cccc21 | – |
